The values that follow come from ChEMBL document CHEMBL1955864, “N-1 and C-3 substituted indole Schiff bases as selective COX-2 inhibitors: synthesis and biological evaluation” (Bioorg Med Chem Lett, 2012).

As usually defined, the IC50 is the concentration that gives 50% inhibition. Read a low IC50 as higher potency.

In the assay the target is T1, Prostaglandin G/H synthase 1 (Ovis aries, UniProt P05979).
T1 sequence (P05979 whole entry): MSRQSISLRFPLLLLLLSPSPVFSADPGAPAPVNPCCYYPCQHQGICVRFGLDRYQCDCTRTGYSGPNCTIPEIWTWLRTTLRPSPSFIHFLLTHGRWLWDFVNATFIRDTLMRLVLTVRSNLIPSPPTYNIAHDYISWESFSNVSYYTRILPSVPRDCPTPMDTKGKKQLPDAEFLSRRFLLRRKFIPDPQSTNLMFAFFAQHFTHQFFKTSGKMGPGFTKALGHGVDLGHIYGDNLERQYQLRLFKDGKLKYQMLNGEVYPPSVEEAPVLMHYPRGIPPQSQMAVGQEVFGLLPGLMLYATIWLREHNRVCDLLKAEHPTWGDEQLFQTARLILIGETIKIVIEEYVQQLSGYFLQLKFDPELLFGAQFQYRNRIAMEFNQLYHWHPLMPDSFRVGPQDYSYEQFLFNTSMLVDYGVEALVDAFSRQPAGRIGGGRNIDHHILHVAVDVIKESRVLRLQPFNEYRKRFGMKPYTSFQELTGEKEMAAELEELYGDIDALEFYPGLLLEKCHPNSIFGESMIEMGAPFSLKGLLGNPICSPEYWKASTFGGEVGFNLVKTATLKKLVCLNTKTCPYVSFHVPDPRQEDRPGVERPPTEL
Briefly: Inhibition of ovine COX-1 by enzyme immuno assay.
Turning to `O=C(c1ccccc1)n1cc(/C=N/c2ccc(C(F)(F)F)cc2)c2ccccc21`, the IC50 was > 100 µM. Regarding `Cc1ccc(/N=C/c2cn(C(=O)c3ccccc3)c3ccccc23)cc1`, the IC50 was determined as 80.2 µM. Consider `FC(F)(F)c1ccc(/N=C/c2c[nH]c3ccccc23)cc1`, for which the midpoint of inhibition, the IC50, lay at 78.2 µM. On to `Fc1ccc(/N=C/c2c[nH]c3ccccc23)cc1`, for which the IC50 worked out at 68.4 µM.

The compound `FC(F)(F)c1ccc(/N=C/c2cn(Cc3ccccc3)c3ccccc23)cc1` displayed an IC50 of 95.5 µM. In the case of `Cc1ccc(/N=C/c2cn(Cc3ccccc3)c3ccccc23)cc1`, half-maximal inhibition (IC50) required 81.5 µM. The compound `Fc1ccc(/N=C/c2cn(Cc3ccccc3)c3ccccc23)cc1` returned an IC50 of 91.1 µM. Compound `O=C(c1ccccc1)n1cc(/C=N/c2ccc(Cl)cc2)c2ccccc21` displayed an IC50 of 86.1 µM.

`Cc1ccc(/N=C/c2c[nH]c3ccccc23)cc1` returned an IC50 of 62.3 µM. On to `O=C(c1ccccc1)n1cc(/C=N/c2ccc(F)cc2)c2ccccc21`, for which the IC50 is > 100 µM.
